How the values were obtained:
bacterial proteomes = assay: ABPP labeling of bacterial proteomes, labeling profile; format: binding; details: 50 μM probe
Text: The library of beta-lactones to be tested comprised compounds with aliphatic or aromatic substitutions varying in length and branching. To evaluate the target selectivity, the beta-lactones were screened against several gram-positive and gram-negative bacterial proteomes including Pseudomonas putida, Listeria welshimeri, Bacillus licheniformis, Bacillus subtilis and Escherichia coli, which are phylogenetically related to pathogenic strains. In addition, mouse liver cytosol was included as an eukaryotic reference proteome. Initial labeling experiments were carried out by adding individual probes at 50 μM concentration to the proteome which is sufficient to achieve full saturation of most targets. […] As an example, labeling of L. welshimeri cytosolic and membrane proteomes as well as B. subtilis cytosolic proteome with a subset of the most complementary probes is shown in FIGS. 9A and 9B. […] Most of the targeted proteins were of low abundance as shown by the direct comparison of the relative intensities observed with Coomassie staining vs. fluorescence scanning (FIG. 11).
(§1) Proteome samples were adjusted to a final concentration of 1 mg protein/mL by dilution in PBS prior to probe labeling. Experiments for visualization by 1D SDS-PAGE were carried out in 43 μL total volume and those for affinity enrichment in 1892 μL total volume, such that once CC reagents were added, the total reaction volume was 50 μL and 2 mL, respectively. Reactions were initiated by addition of the probe and allowed to incubate for 60 min at room temperature. For heat controls the proteome was denatured with 1 μL of 43% SDS at 95° C. for 6 min and cooled to room temperature before the probe was applied. Following incubation, reporter tagged-azide reagents (13 μM rhodamine-azide for analytical or 20 μM rhodamine-biotin-azide for preparative scale) were added followed by 1 mM TCEP and 100 μM ligand. Samples were gently vortexed and the cycloaddition initiated by the addition of 1 mM CuSO4. The reactions were incubated at room temperature for 1 h (Speers, J. Amer. Chem. Soc. 125 (2003), 4686).

ClpP = target: T1, ClpP (Listeria monocytogenes serovar 1/2a, UniProt Q9RQI6); assay: In vivo labeling of Listeria proteomes; format: cell-based; details: living L. monocytogenes EGDe, cytosol, 2 h incubation
T1 construct: endogenous in cells; host or cells: living Listeria monocytogenes EGDe, stationary phase
Experimental: For analytical and preparative in vivo studies, Listeria were grown to stationary phase and harvested by centrifugation at 4,000 rpm 1 h after entrance in the stationary phase (1.5 ml for analytical and 15 ml for preparative studies). The cell pellets were washed once with PBS and resuspended in 100 μL and 500 μL PBS for analytical and preparative studies, respectively. The cell suspensions were incubated for 2 h with varying concentrations of probe at room temperature. Probes were applied from DMSO stocks whereby DMSO never exceeded 2% in the final solution. For preparative experiments, 50 μM of the probes was added to the cells resuspended in PBS. After incubation, the cells were washed thoroughly three times with PBS to remove excess probe from the supernatant. Subsequently the cells were lysed in 100 μL (500 μL) PBS by sonication with a Bandelin Sonopuls with 3×20 sec. pulsed at 70% max. power. For analytical experiments 44 μL proteome were used to append a reporter tag via CC, such that once CC reagents were added, the total reaction volume was 50 μL. In preparative purposes the total volume of 500 μL it was consumed per experiment. Reporter tagged-azide reagents (13 μM rhodamine-azide for analytical or 20 μM rhodamine-biotin-azide for preparative scale) were added followed by 1 mM TCEP and 100 μM ligand. Samples were gently vortexed and the cycloaddition initiated by the addition of 1 mM CuSO4. The reactions were incubated at room temperature for 1 h. For analytical gel electrophoresis, 50 μL 2×SDS loading buffer were added and 50 μL applied on the gel. Fluorescence was recorded in a Fujifilm Las-3000 Fluoreszenz Darkbox with a Fujinon VRF 43LMD Lens, 605DF40 filter and 520 nm EPI excitation wavelength.

[1] = test system: LLO haemolytic activity of L. monocytogenes EGDe; assay: LLO haemolytic activity testing of culture supernatants; format: cell-based, Listeria monocytogenes EGDe
Experimental: Overnight cultures of L. monocytogenes EGDe were harvested by centrifugation and resuspended in an equal volume of fresh BHB medium. In 1.5 mL Eppendorf tubes, 400 μL of BHB medium were inoculated with 4 μL of the resuspended Listeria culture and 4 μL of a corresponding beta-lactone stock in DMSO. The final concentrations were 800 μM, 400 μM, 200 μM, 100 μM and DMSO as control. The amount of DMSO in all tests was 1% of the medium. After mixing, the test tubes were incubated under continuous shaking at 200 rpm at 37° C. for 16 h. Then, cells were centrifuged and the supernatants filtered sterile by passing them through a 0.2 μm pore size filter. Haemolytic activity of LLO in the culture supernatants was quantitatively investigated according to a method described in J. Food Safety 1998, 18: 197-203 (incorporated herein by reference) with some modifications. In Nunclon™ 96-well plates with round shaped wells 100 μL of serial dilutions of the supernatants in PBS were added per well and incubated with 100 μL of 3% SRBC (sheep red blood cells) resuspended in PBS for 15 min at 37° C. under gentle shaking. The 96-well plates were centrifuged at 600 rpm for 5 min and the minimum dilution at which intact blood cells began to form a pellet was recorded. Controls with no lactone were set 100%. Buffer only controls and pure BHB medium yielded no haemolysis.

[2] = test system: lipase/acylhydrolase (LipAc); assay: ABPP probe dose down in proteome, lipase/acylhydrolase labeling; format: binding; details: L. welshimeri proteome, concentration range 10 μM to 5 nM
Experimental: To estimate the strength of probe interactions with proteins in the proteome, we compared the reactivity profiles of selected beta-lactones across a broad concentration range from 10 μM to 5 nM.
as §1

[3] = test system: haemolysis abilities of Staphylococcus aureus; assay: Blood agar plate-based haemolysis assay; format: cell-based; details: total amount of 250 nmol applied on Whatman Cards, 5% sheep blood agar, 37° C. over night
Experimental: FIG. 3: Blood agar plate-based assay illustrating that beta-lactones have an effect on the haemolysis abilities of Staphylococcus aureus. 2.5 μL of S. aureus LB dilution (OD600=0.13 corresponding to approx. 1×10^8 cfu/ml) and 2.5 μL DMSO/lactone in DMSO were applied on Whatman Cards placed on 5% sheep blood agar plates (Heipha Diagnostika, Eppelheim, Germany) and incubated at 37° C. over night. A) Direct comparison of beta-lactones as shown in FIG. 2 at a total amount of 250 nmol applied on Whatman Cards. B) Dose down with beta-lactone compounds D3, E2 and G2 at applied concentrations of 100 mM, 50 mM, 25 mM, 12.5 mM, 6.25 mM and 0 mM (corresponding to total amounts of 250 nmol, 125 nmol, 62.5 nmol, 31.3 nmol, 15.6 nmol and 0 nmol, respectively).
2.5 μl, of S. aureus LB dilution (OD600 0.13 corresponding to approx. 1×10^8 cfu/ml) and 2.5 μL DMSO/beta-lactone in DMSO were applied on Whatman Cards placed on 5% sheep blood agar plates (Heipha Diagnostika, Eppelheim, Germany) and incubated at 37° C. over night. FIG. 3A directly compares the β-lactones at a total amount of 250 nmol applied on Whatman Cards. […] For D3 almost no haemolysis is observed down to a total amount of 125 nmol lactone. FIG. 5 illustrates the haemolytic activity of beta-lactone compounds D3, E2 and G2 plotted against the total amount of the respective beta-lactone, whereby a haemolysis zone size of 1.5 mm was set as 100% haemolytic activity. The data shown in FIG. 5 has been corroborated by further experimental testing.
Haemolysis was tested on blood agar plates (5% sheep blood; Heipha Diagnostika, Eppelheim, Germany). Sterile circles of Whatman cards (No. Y) with 5 mm diameter were placed on agar plates and inoculated with 2.5 μL of the corresponding beta-lactone/DMSO and 2.5 μL stationary phase culture of S. aureus diluted to […]. The plates were incubated over night at 37° C. and the diameters of the zones around the bacterial colonies were precisely measured using a vernier caliper.

[4] = test system: proteolysis abilities of Staphylococcus aureus; assay: Milk agar plate-based proteolysis assay; format: cell-based; details: for proteolytic activity of S. aureus: total amount of 250 nmol applied on Whatman Cards, 1% skim milk LB agar, 37° C. over night
Experimental: FIG. 6: Milk agar plate-based assay illustrating that beta-lactones have an effect on the proteolysis abilities of Staphylococcus aureus. 2.5 μL of S. aureus LB dilution (OD600=0.13 corresponding to approx. 1×10^8 cfu/ml) and 2.5 μL DMSO/beta-lactone in DMSO were applied on Whatman Cards placed on 1% skim milk LB agar plates and incubated at 37° C. over night. A) Direct comparison of beta-lactones as shown in FIG. 2 at a total amount of 250 nmol applied on Whatman Cards. B) Dose down with beta-lactones D3, E2 and G2 at applied concentrations of 100 mM, 50 mM, 25 mM, 12.5 mM, 6.25 mM and 0 mM (corresponding to total amounts of 250 nmol, 125 nmol, 62.5 nmol, 31.3 nmol, 15.6 nmol and 0 nmol, respectively). C) Proteolysis zone size plotted against the total amount of the respective beta-lactone.
2.5 μL of S. aureus LB dilution (OD600=0.13 corresponding to approx. 1×10^8 cfu/ml) and 2.5 μL DMSO/beta-lactone in DMSO were applied on Whatman Cards placed on 1% skim milk LB agar plates and incubated at 37° C. over night. FIG. 6A directly compares the β-lactones at a total amount of 250 nmol applied on Whatman Cards. […] For D3 and E2 almost no proteolysis is observed down to a total amount of 125 nmol of the respective beta-lactone. FIG. 6C illustrates that the proteolysis zone size plotted against the total amount of beta-lactone visualizes the strong effects particularly of D3 and E2.

serine proteases = assay: Competitive labeling with PMSF; format: binding; details: 100 fold excess, 15 min prior to beta-lactone probes
Experimental: (§2) FIG. 13: Active site competition assays and IC50. A) Competition experiment with KAS II with and without 100 fold excess of cerulenin in presence of the beta-lactone probe G2. B) Competition experiments with several serine proteases with and without 100 fold excess of PMSF in presence of the corresponding beta-lactone probes (LWC: L. welshimeri cytosol, LWM: L. welshimeri membrane, BSC: B. subtilis cytosol). C) IC50 of 5 μM for SFGH. For a list of abbreviations, please refer to Example 6, Table 1. The term PNB is also referred to herein as PNBE.
(§3) In competitive assays, a 100 fold excess of PMSF or cerulenin was added to the proteome 15 min prior to beta-lactone addition.

KAS II = assay: Competitive labeling with cerulenin; format: binding; details: 100 fold excess, 15 min prior to beta-lactone probe G2
Experimental: as §2, §3

T1 sequence (Q9RQI6 whole entry): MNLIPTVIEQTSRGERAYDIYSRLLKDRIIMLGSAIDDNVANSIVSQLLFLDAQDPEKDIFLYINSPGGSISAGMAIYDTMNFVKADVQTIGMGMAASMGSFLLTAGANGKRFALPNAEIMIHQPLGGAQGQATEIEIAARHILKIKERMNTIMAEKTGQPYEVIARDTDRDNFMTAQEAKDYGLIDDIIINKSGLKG

SMILES: C#CCCC[C@H]1OC(=O)[C@H]1C(C)(C)C (relative stereo) [L1, cis-3-dimethylethyl-4-(4-pentyn-1-yl)oxetan-2-one]
- enzyme labeling in proteomes (bacterial proteomes): decreased the number of specific labeling events

SMILES: C#CCCC[C@@H]1OC(=O)[C@H]1CCCCCCCC(=O)Sc1ccccc1 (relative stereo) [N1, trans-S-phenyl 8-(2-oxo-4-(4-pentyn-1-yl)oxetan-3-yl)octanethioate]
- ClpP labeling (probe potency ranking) (ClpP): most potent probes
- EC50 ([1]; Listeria monocytogenes, Erythrocyte, cultures grown 16 h with lactone, sheep red blood cells, read-out: EC50 of reduction of LLO haemolytic activity): < 100 µM

SMILES: C#CCCC[C@@H]1OC(=O)[C@H]1c1ccc2ccccc2c1 (relative stereo) [P1, trans-3-(2-naphthyl)-4-(4-pentyn-1-yl)oxetan-2-one, reference compound]
- probe concentration down to which LipAc is labeled [2]: 160 nM

SMILES: C#CCCCC1CC(=O)O1 (stereo not shown) [A1, 4-(4-Pentyn-1-yl)oxetan-2-one]
- enzyme labeling in proteomes (bacterial proteomes): poor in enzyme labeling

SMILES: C#CCCCC1OC(=O)C1c1ccc(OC)cc1 (stereo not drawn) [E2, trans-3-(4-methoxyphenyl)-4-(4-pentyn-1-yl)oxetan-2-one]
- haemolytic activity of S. aureus [3]: strongly reduce
- total amount down to which almost no proteolysis is observed ([4]; dose down 250-15.6 nmol): 125 nmol
- proteolytic activity of S. aureus [4]: strongly reduce

SMILES: C#CCCCC1OC(=O)C1(C)C (stereo not drawn) [M1, trans-3,3-dimethyl-4-(4-pentyn-1-yl)oxetan-2-one, reference compound]
- ClpP labeling (probe potency ranking) (ClpP): did not label and inhibit ClpP
- effect on haemolysis ([1]; control probe): no effect
- lysis of blood cells by culture supernatant ([1]; fourfold dilution of supernatant, even at 800 μM): complete lysis
- haemolytic activity of S. aureus [3]: no effect
- proteolytic activity of S. aureus [4]: no effect

SMILES: C#CCCCC1OC(=O)C12CCCCC2 (stereo not shown) [O1, 4-(4-pentyn-1-yl)oxetan-2-one-3-spirocyclohexane]
- enzyme labeling in proteomes (bacterial proteomes): decreased the number of specific labeling events

SMILES: O=S(=O)(F)Cc1ccccc1 [PMSF]
- effect of pre-incubation on probe labeling of serine proteases (serine proteases): prevented subsequent probe labeling

SMILES: C/C=C/C/C=C/CCC(=O)[C@H]1O[C@H]1C(N)=O [cerulenin]
- effect of pre-incubation on probe labeling of KAS II (KAS II): prevented subsequent probe labeling

— US9521845B2, “Beta-lactones as antibacterial agents” (LUDWIG-MAXIMILIANS-UNIVERSITÄT-MÜNCHEN, priority 2008, dated 2016)
